From article PMC4491112 (Cancer chemotherapy and pharmacology, 2011)
“Also recorded” adds a separate entry of the source. Where two headings read alike, the source gives them in different places.

What was measured:
[1] = high-fat breakfast vs fasting, P < 0.001; cited from earlier work
advanced solid tumors = assay: Tumor response by RECIST version 1.0; format: in vivo, human
[2] = Adverse events, laboratory abnormalities and ECG; format: in vivo, human; settings: continual treatment phase, 45 mg
[3] = fasting state, two other phase 1 studies, CV 56%; cited from earlier work
[4] = administered on days 1 and 4 of a weekly schedule; cited from earlier work
[5] = highly soluble, highly permeable class; cited from earlier work
[6] = format: in vivo, human; settings: 20 mg oral
Adverse events and ECG = format: in vivo, human
[7] = N = 29, Grade 3/4, regardless of study drug relationship
[8] = N = 29, any grade, regardless of study drug relationship
[9] = 20 mg, all patients (n = 36), any grade
[10] = 20 mg, high-fat breakfast (n = 36), any grade
[11] = 20 mg, high-fat breakfast, any grade
[12] = 20 mg, normal breakfast (n = 34), any grade
[13] = 20 mg, normal breakfast, any grade
[14] = 20 mg, overnight fast (n = 34), any grade
[15] = food-effect phase, 20 mg, N = 36, Grade 3/4, regardless of study drug relationship
[16] = food-effect phase, 20 mg, N = 36, any grade, regardless of study drug relationship
[17] = food-effect phase, 20 mg, any grade

Structure (SMILES): O=C(CCCCCCC(=O)Nc1ccccc1)NO [vorinostat]
- delay in Tmax by food [1]: 2.5 h

Structure (SMILES): Cc1[nH]c2ccccc2c1CCNCc1ccc(/C=C/C(=O)NO)cc1 [panobinostat, Panobinostat]
- progressive disease, share of patients (advanced solid tumors; N = 36, RECIST): 58.3%
- partial response, share of patients (advanced solid tumors; N = 36, best response, RECIST): 2.8%
- stable disease, share of patients (advanced solid tumors; N = 36, best response, RECIST): 16.7%
- Fatigue, overall frequency [2]: 48.3%
- Nausea, overall frequency [2]: 37%
- Vomiting, overall frequency [2]: 31.0%
- frequency of grade 3 and 4 AEs [2]: 65.5%
- grade 3/4 biochemical abnormality: hypophosphatemia [2]: 10.3%
- grade 3/4 newly occurring or worsened hematologic laboratory abnormality: decreased platelet count [2]: 44.8%
- Abdominal pain [2, 7]: 1 (3.4) n (%)
- Anemia [2, 7]: 1 (3.4) n (%)
- Anorexia [2, 7]: 0 (0.0) n (%)
- Constipation [2, 7]: 0 (0.0) n (%)
- Decreased platelet count [2, 7]: 3 (10.3) n (%)
- Diarrhea [2, 7]: 1 (3.4) n (%)
- Dyspnea [2, 7]: 0 (0.0) n (%)
- Fatigue [2, 7]: 5 (17.2) n (%)
- Headache [2, 7]: 0 (0.0) n (%)
- Nausea [2, 7]: 1 (3.4) n (%)
- Pyrexia [2, 7]: 0 (0.0) n (%)
- Thrombocytopenia [2, 7]: 11 (37.9) n (%)
- Total adverse events [2, 7]: 19 (65.5) n (%)
- Vomiting [2, 7]: 2 (6.9) n (%)
- Abdominal pain [2, 8]: 6 (20.7) n (%)
- Anemia [2, 8]: 5 (17.2) n (%)
- Anorexia [2, 8]: 10 (34.5) n (%)
- Constipation [2, 8]: 3 (10.3) n (%)
- Decreased platelet count [2, 8]: 6 (20.7) n (%)
- Diarrhea [2, 8]: 8 (27.6) n (%)
- Dyspnea [2, 8]: 7 (24.1) n (%)
- Fatigue [2, 8]: 14 (48.3) n (%)
- Headache [2, 8]: 5 (17.2) n (%)
- Nausea [2, 8]: 11 (37.9) n (%)
- Pyrexia [2, 8]: 3 (10.3) n (%)
- Thrombocytopenia [2, 8]: 15 (51.7) n (%)
- Total adverse events [2, 8]: 26 (89.7) n (%)
- Vomiting [2, 8]: 9 (31.0) n (%)
- Thrombocytopenia, frequency ([2]; any grade): 51.7%
- Thrombocytopenia, frequency ([2]; grade 3/4): 37.9%
- patients with QTc-interval abnormalities ([2]; QTcF >500 ms and/or increase >60 ms from baseline): two
- mean AUC0–∞ [3]: 0.183 µg·h/mL
- accumulation [4]: did not accumulate
- Biopharmaceutics Classification System class [5]: Class I like
- effect of prandial state on mean elimination half-life ([6]; fasting vs high-fat vs normal breakfast): not altered; also recorded: unaltered
- reduction of systemic exposure following food ([6]; food vs fasting): 14–16%
- interpatient variability of exposure (coefficient of variation) ([6]; with or without food): 59%
- Cmax reduction ([6]; high-fat breakfast vs fasting): 44%
- Tmax, median difference (range) ([6]; high-fat breakfast/fasting): 2.48 (–2.00 to 7.02) h
- AUC(0-inf) ([6]; human, plasma, po, 20 mg, AUC0–∞, mean (CV, %), fasting (n = 33)): 0.176 µg·h/mL
- Cmax ([6]; human, plasma, po, 20 mg, Cmax, mean (CV, %), fasting (n = 33)): 0.023 µg/mL
- Tmax ([6]; human, plasma, po, 20 mg, Tmax, median (range), fasting (n = 33)): 1.5 h
- half-life ([6]; human, plasma, po, 20 mg, t1/2, mean (CV, %), fasting (n = 33)): 14.5 h
- Cmax reduction ([6]; normal breakfast vs fasting): 36%
- Tmax, median difference (range) ([6]; normal breakfast/fasting): 1.45 (–2.50 to 2.02) h
- Panobinostat-related fatigue (Adverse events and ECG; [9]): 16 (44.4) n (%)
- Panobinostat-related nausea (Adverse events and ECG; [9]): 11 (30.6) n (%)
- Panobinostat-related vomiting (Adverse events and ECG; [9]): 7 (19.4) n (%)
- drug-related diarrhea, frequency (Adverse events and ECG; 20 mg, fasting, any grade): 5.9%
- drug-related nausea, frequency (Adverse events and ECG; 20 mg, fasting, any grade): 14.7%
- drug-related vomiting, frequency (Adverse events and ECG; 20 mg, fasting, any grade): 14.7%
- Panobinostat-related fatigue (Adverse events and ECG; [10]): 5 (13.9) n (%)
- Panobinostat-related nausea (Adverse events and ECG; [10]): 3 (8.3) n (%)
- Panobinostat-related vomiting (Adverse events and ECG; [10]): 1 (2.8) n (%)
- drug-related diarrhea, frequency (Adverse events and ECG; [11]): 0%
- drug-related fatigue, frequency (Adverse events and ECG; [11]): 13.9%
- drug-related nausea, frequency (Adverse events and ECG; [11]): 8.3%
- drug-related vomiting, frequency (Adverse events and ECG; [11]): 2.8%
- Panobinostat-related fatigue (Adverse events and ECG; [12]): 10 (29.4) n (%)
- Panobinostat-related nausea (Adverse events and ECG; [12]): 8 (23.5) n (%)
- Panobinostat-related vomiting (Adverse events and ECG; [12]): 5 (14.7) n (%)
- drug-related diarrhea, frequency (Adverse events and ECG; [13]): 8.8%
- drug-related fatigue, frequency (Adverse events and ECG; [13]): 29.4%
- drug-related nausea, frequency (Adverse events and ECG; [13]): 23.5%
- drug-related vomiting, frequency (Adverse events and ECG; [13]): 14.7%
- Panobinostat-related fatigue (Adverse events and ECG; [14]): 1 (2.9) n (%)
- Panobinostat-related nausea (Adverse events and ECG; [14]): 5 (14.7) n (%)
- Panobinostat-related vomiting (Adverse events and ECG; [14]): 5 (14.7) n (%)
- drug-related fatigue, frequency (Adverse events and ECG; 20 mg, overnight fast, any grade): 2.9%
- patients with SAEs (Adverse events and ECG; food-effect phase, 20 mg): seven
- reported grade 3 or 4 AEs (Adverse events and ECG; food-effect phase, 20 mg): eight
- QTcF >480 ms or >60 ms increase from baseline (Adverse events and ECG; food-effect phase, 20 mg, 12-lead ECG): no QTcF >480 ms or >60 ms increase from baseline was observed
- Abdominal pain (Adverse events and ECG; [15]): 0 (0) n (%)
- Constipation (Adverse events and ECG; [15]): 0 (0) n (%)
- Diarrhea (Adverse events and ECG; [15]): 1 (2.8) n (%)
- Fatigue (Adverse events and ECG; [15]): 3 (8.3) n (%)
- Headache (Adverse events and ECG; [15]): 0 (0) n (%)
- Nausea (Adverse events and ECG; [15]): 2 (5.6) n (%)
- Pyrexia (Adverse events and ECG; [15]): 0 (0) n (%)
- Thrombocytopenia (Adverse events and ECG; [15]): 0 (0) n (%)
- Total adverse events (Adverse events and ECG; [15]): 8 (22.2) n (%)
- Vomiting (Adverse events and ECG; [15]): 2 (5.6) n (%)
- Abdominal pain (Adverse events and ECG; [16]): 5 (13.9) n (%)
- Constipation (Adverse events and ECG; [16]): 7 (19.4) n (%)
- Diarrhea (Adverse events and ECG; [16]): 7 (19.4) n (%)
- Fatigue (Adverse events and ECG; [16]): 18 (50.0) n (%)
- Headache (Adverse events and ECG; [16]): 6 (16.7) n (%)
- Nausea (Adverse events and ECG; [16]): 15 (41.7) n (%)
- Pyrexia (Adverse events and ECG; [16]): 5 (13.9) n (%)
- Thrombocytopenia (Adverse events and ECG; [16]): 5 (13.9) n (%)
- Total adverse events (Adverse events and ECG; [16]): 34 (94.4) n (%)
- Vomiting (Adverse events and ECG; [16]): 10 (27.8) n (%)
- Fatigue, frequency (Adverse events and ECG; [17]): 50%
- Nausea, frequency (Adverse events and ECG; [17]): 41.7%
- Thrombocytopenia, frequency (Adverse events and ECG; [17]): 13.9%
- Vomiting, frequency (Adverse events and ECG; [17]): 27.8%
- study-drug related SAEs (Adverse events and ECG; food-effect phase, 20 mg, grade 3 fatigue and grade 3 vomiting): two
- patients discontinued due to adverse events (Adverse events and ECG; food-effect phase, grade 3 fatigue and nausea/vomiting following a normal breakfast): one
